The results in this text go back to US9469615B2, “Quinoxalines and AZA-quinoxalines as CRTH2 receptor modulators” (Merck Sharp & Dohme Corp., priority 2010, dated 2016).

The first test deals with T1, hCRTH2 (Homo sapiens, UniProt Q9Y5Y4).
T1 construct: expressed in transfected cells; host or cells: HEK (human embryonic kidney) cells expressing hCRTH2; membrane preparation
T1 sequence (Q9Y5Y4 1-395): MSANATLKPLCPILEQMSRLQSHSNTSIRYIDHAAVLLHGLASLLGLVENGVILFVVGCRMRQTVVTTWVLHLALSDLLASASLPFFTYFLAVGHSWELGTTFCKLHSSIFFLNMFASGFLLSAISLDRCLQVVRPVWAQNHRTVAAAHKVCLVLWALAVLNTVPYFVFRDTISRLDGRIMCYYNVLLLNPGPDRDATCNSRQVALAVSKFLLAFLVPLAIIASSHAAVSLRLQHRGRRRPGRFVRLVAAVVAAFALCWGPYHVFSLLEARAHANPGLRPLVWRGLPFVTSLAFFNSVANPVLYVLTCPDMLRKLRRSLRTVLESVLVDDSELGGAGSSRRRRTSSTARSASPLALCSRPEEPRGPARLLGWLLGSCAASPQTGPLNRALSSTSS
The experiment in a line: Radioligand binding assay ([3H]PGD2 competition, HEK-hCRTH2 membranes). The settings on record: [3H]PGD2 binding, values in text. Summed up: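 HEK-hCRTH2 membranes, 8-20 μg; [3H]PGD2 3.0 nM; 50 mM Tris-HCl pH 7.4/1 mM EDTA/2 mM MnCl2; DMSO 1%; 60 min RT; NSB 10 μM PGD2; filtration, scintillation counting.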
What is called Ki is a dissociation constant, usually derived from enzyme kinetics or from competition with a known ligand. Higher therefore signals a looser hold on the target. Regarding `O=C(O)CCCCc1nc2cc(C(=O)N[C@H]3CCS(=O)(=O)c4ccccc43)ccc2nc1-c1ccc(F)cc1` [compound 709, (S)-5-(7-((1,1-dioxidothiochroman-4-yl)carbamoyl)-3-(4-fluorophenyl)quinoxalin-2-yl)pentanoic acid], the inhibition constant (Ki) turned out to be 18.4 nM.

Still in this test, the particulars now being: [3H]PGD2 competition, Table B.
`O=C(N[C@@H]1CCCc2ccccc21)c1ccc2nc(-c3ccccc3)c(CCCC(O)C(=O)O)nc2c1` (stereo partly drawn) [compound 706, 2-hydroxy-5-(3-phenyl-7-(((R)-1,2,3,4-tetrahydronaphthalen-1-yl)carbamoyl)quinoxalin-2-yl)pentanoic acid] registered an inhibition constant (Ki) of 201 to 700 nM.
`CC1(C)CCC(NC(=O)c2ccc3nc(-c4ccccc4)c(CCCCC(=O)O)nc3c2)c2ccccc21` (stereo not shown) [compound 707, 5-(7-((4,4-dimethyl-1,2,3,4-tetrahydronaphthalen-1-yl)carbamoyl)-3-phenylquinoxalin-2-yl)pentatioic acid] registered a Ki of 2.1 to 20 nM.
Compound `O=C(O)CCCCc1nc2cc(C(=O)N[C@H]3CCS(=O)(=O)c4ccccc43)ccc2nc1-c1ccc(F)cc1` [compound 709, (S)-5-(7-((1,1-dioxidothiochroman-4-yl)carbamoyl)-3-(4-fluorophenyl)quinoxalin-2-yl)pentanoic acid] returned a Ki of 2.1 to 20 nM.
`O=C(O)CCCCc1nc2cc(C(=O)N[C@H]3CC(=O)Nc4ccccc43)ccc2nc1-c1ccccc1` [compound 710, (S)-5-(7-((2-oxo-1,2,3,4-tetrahydroquinolin-4-yl)carbamoyl)-3-phenylquinoxalin-2-yl)pentanoic acid] yielded a Ki of 20.1 to 200 nM.
Compound `O=C(O)CCCCc1nc2cc(C(=O)N[C@@H]3CC(=O)Nc4ccccc43)ccc2nc1-c1ccccc1` [compound 711, (R)-5-(7-((2-oxo-1,2,3,4-tetrahydroquinolin-4-yl)carbamoyl)-3-phenylquinoxalin-2-yl)pentanoic acid] yielded a Ki of 2.1 to 20 nM.
On the same count and under the same terms, the figure for `O=C(O)CCCCc1nc2cc(C(=O)N[C@H]3CC(=O)Nc4ccc(F)cc43)ccc2nc1-c1ccccc1` [compound 712, (S)-5-(7-((6-fluoro-2-oxo-1,2,3,4-tetrahydroquinolin-4-yl)carbamoyl)-3-phenylquinoxalin-2-yl)pentanoic acid] is 20.1 to 200 nM; for `O=C(O)CCCCc1nc2cc(C(=O)N[C@@H]3CC(=O)Nc4ccc(F)cc43)ccc2nc1-c1ccccc1` [compound 713, (R)-5-(7-((6-fluoro-2-oxo-1,2,3,4-tetrahydroquinolin-4-yl)carbamoyl)-3-phenylquinoxalin-2-yl)pentanoic acid] it is 2.1 to 20 nM; for `O=C(O)CCCCc1nc2cc(C(=O)N[C@H]3CCS(=O)(=O)c4ccccc43)ccc2nc1-c1ccccc1` [compound 714, (S)-5-(7-((1,1-dioxidothiochroman-4-yl)carbamoyl)-3-phenylquinoxalin-2-yl)pentanoic acid] it is 20.1 to 200 nM.
As for `O=C(O)CCCCc1nc2cc(C(=O)N[C@@H]3CCS(=O)(=O)c4ccccc43)ccc2nc1-c1ccccc1` [compound 715, (R)-5-(7-((1,1-dioxidothiochroman-4-yl)carbamoyl)-3-phenylquinoxalin-2-yl)pentanoic acid], the inhibitory constant (Ki) lay in the range of 2.1 to 20 nM.
`O=C(O)CCCCc1nc2cc(C(=O)N[C@@H]3CCCc4ccccc43)c(F)cc2nc1-c1ccccc1` [compound 716, (R)-5-(6-fluoro-3-phenyl-7-((1,2,3,4-tetrahydro-naphthalen-1-yl)carbamoyl)quinoxalin-2-yl)pentanoic acid] came in with a Ki of 2.1 to 20 nM.
For `O=C(O)CCCCc1nc2cc(C(=O)N[C@@H]3CCCc4ccccc43)c(F)cc2nc1-c1ccc(F)cc1` [compound 717, (R)-5-(6-fluoro-3-(4-fluorophenyl)-7-((1,2,3,4-tetrahydronaphthalen-1-yl)carbamoyl)quinoxalin-2-yl)pentanoic acid], the inhibition constant Ki lay in the range of 2.1 to 20 nM.
On to `O=C(O)CCCCc1nc2cc(C(=O)N[C@@H]3CCCc4ccccc43)c(F)cc2nc1-c1ccc(Cl)cc1` [compound 718, (R)-5-(3-(4-chlorophenyl)-6-fluoro-7-((1,2,3,4-tetrahydronaphthalen-1-yl)carbamoyl)quinoxalin-2-yl)pentanoic acid], for which the Ki fell in the range of 2.1 to 20 nM.
On the same count and under the same terms, the figure for `O=C(O)CCCCc1nc2cc(C(=O)N3C4C=C(c5ccccc5)CC3CC4)ccc2nc1-c1ccccc1` (stereo not shown) [compound 719, 5-(3-phenyl-7-(3-phenyl-8-azabicyclo[3.2.1]oct-2-ene-8-carbonyl)quinoxalin-2-yl)pentanoic acid] is 2.1 to 20 nM; for `O=C(O)CCCCc1nc2cc(C(=O)N[C@@H]3CCOc4cc(C(F)(F)F)ccc43)ccc2nc1-c1ccc(Cl)cc1` [compound 720, (R)-5-(3-(4-chlorophenyl)-7-((7-(trifluoromethyl)chroman-4-yl)carbamoyl)quinoxalin-2-yl)pentanoic acid] it is 2.1 to 20 nM; for `CC1(C)CC[C@H](NC(=O)c2ccc3nc(-c4ccccc4)c(CCCCC(=O)O)nc3c2)c2ccccc21` [compound 721, (S)-5-(7-((4,4-dimethyl-1,2,3,4-tetrahydronaphthalen-1-yl)carbamoyl)-3-phenylquinoxalin-2-yl)pentanoic acid] it is 2.1 to 20 nM.
`CC1(C)CC[C@@H](NC(=O)c2ccc3nc(-c4ccccc4)c(CCCCC(=O)O)nc3c2)c2ccccc21` [compound 722, (R)-5-(7-((4,4-dimethyl-1,2,3,4-tetrahydronaphthalen-1-yl)carbamoyl)-3-phenylquinoxalin-2-yl)pentanoic acid] came in with a Ki of 2.1 to 20 nM.
The same measure, in the same setting: with `O=C(O)CCCc1nc2cc(C(=O)N[C@@H]3CCCc4cc(F)ccc43)ccc2nc1-c1ccccc1` [compound 723, (R)-4-(7-((6-fluoro-1,2,3,4-tetrahydronaphthalen-1-yl)carbamoyl)-3-phenylquinoxalin-2-yl)butanoic acid] the figure was 20.1 to 200 nM; with `O=C(O)CCCc1nc2cc(C(=O)N[C@@H]3CCCc4ccccc43)ccc2nc1-c1ccccc1` [compound 724, (R)-4-(3-phenyl-7-((1,2,3,4-tetrahydronaphthalen-l-yl)carbamoyl)quinoxalin-2-yl)butanoic acid], 201 to 700 nM.
As to `O=C(O)CCCc1nc2cc(C(=O)N[C@@H]3CCOc4cc(F)ccc43)ccc2nc1-c1ccccc1` [compound 725, (R)-4-(7-((7-fluorochroman-4-yl)carbamoyl)-3-phenylquinoxalin-2-yl)butanoic acid], the Ki was in the range of 201 to 700 nM.
With `C[C@@H](NC(=O)c1cc2nc(CCCCC(=O)O)c(-c3ccccc3)nc2cc1F)c1ccc(F)cc1` [compound 727, (R)-5-(6-fluoro-7-((1-(4-fluorophenyl)ethyl)carbamoyl)-3-phenylquinoxalin-2-yl)pentanoic acid], the Ki is 2.1 to 20 nM.
Take `O=C(O)CCCCc1nc2cc(C(=O)N[C@@H]3CCOc4ccccc43)c(F)cc2nc1-c1ccccc1` [compound 728, (R)-5-(7-(chroman-4-ylcarbamoyl)-6-fluoro-3-phenylquinoxalin-2-yl)pentanoic acid]: the inhibition constant (Ki) fell in the range of 2.1 to 20 nM.
